Source: PMC3535377 (Amino Acids, 2011)

Experiments:
human TG6 (T021; Zedira) [1] = target: T1, human TG6 (T021; Zedira) (Homo sapiens, UniProt O95932); test: fluorescence isopeptidase; type: biochemical
T1 sequence (O95932 1-706): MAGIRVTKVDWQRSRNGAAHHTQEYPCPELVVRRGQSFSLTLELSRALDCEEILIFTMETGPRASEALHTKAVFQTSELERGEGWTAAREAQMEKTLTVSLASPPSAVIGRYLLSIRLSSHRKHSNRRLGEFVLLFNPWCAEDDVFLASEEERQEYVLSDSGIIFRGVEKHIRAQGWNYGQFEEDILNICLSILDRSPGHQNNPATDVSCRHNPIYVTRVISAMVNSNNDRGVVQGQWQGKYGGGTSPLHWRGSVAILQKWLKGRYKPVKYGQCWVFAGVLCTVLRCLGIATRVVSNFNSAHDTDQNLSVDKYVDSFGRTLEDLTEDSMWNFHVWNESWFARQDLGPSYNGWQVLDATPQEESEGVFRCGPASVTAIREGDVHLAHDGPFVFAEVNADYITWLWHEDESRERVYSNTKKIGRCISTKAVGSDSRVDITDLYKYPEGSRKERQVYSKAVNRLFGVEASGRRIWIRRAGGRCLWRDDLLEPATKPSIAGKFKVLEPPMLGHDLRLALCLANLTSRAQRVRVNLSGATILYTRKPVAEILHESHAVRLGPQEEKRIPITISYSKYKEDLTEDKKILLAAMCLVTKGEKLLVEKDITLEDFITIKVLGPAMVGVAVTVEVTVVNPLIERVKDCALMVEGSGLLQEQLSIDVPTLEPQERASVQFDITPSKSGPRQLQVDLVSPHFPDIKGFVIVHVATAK

human TG6 (T021; Zedira) [2] = target: T1, human TG6 (T021; Zedira); test: fluorescence isopeptidase; type: biochemical; conditions: 37°C, Ca2+-activated; allosteric

`Nc1ncnc2c1ncn2[C@@H]1O[C@H](COP(=O)(O)OP(=O)(O)OP(=O)(O)O)[C@@H](O)[C@H]1O` [ATP] was tested, and the IC50 (human TG6 (T021; Zedira) [1]) was roughly 1000 µM.
In the case of `Nc1nc2c(ncn2[C@@H]2O[C@H](COP(=O)(O)OP(=O)(O)O)[C@@H](O)[C@H]2O)c(=O)[nH]1` [GDP], the half-maximal inhibition (human TG6 (T021; Zedira) [2]) is reported as “Activity of TG6 is inhibited to a similar degree by GTP and GDP”.
For `Nc1nc2c(ncn2[C@@H]2O[C@H](COP(=O)(O)O)[C@@H](O)[C@H]2O)c(=O)[nH]1` [GMP], the half-maximal inhibition (human TG6 (T021; Zedira) [2]) was “but the affinity for GMP is low”.
Compound `Nc1nc2c(ncn2[C@@H]2O[C@H](COP(=O)(O)OP(=O)(O)OP(=O)(O)O)[C@@H](O)[C@H]2O)c(=O)[nH]1` [GTP] has an IC50 (human TG6 (T021; Zedira) [1]) of 200 µM.
`Nc1nc2c(ncn2[C@@H]2O[C@H](COP(=O)(O)OP(=O)(O)OP(O)(O)=S)[C@@H](O)[C@H]2O)c(=O)[nH]1` [GTPγS] was tested, and the half-maximal inhibition (human TG6 (T021; Zedira) [2]) was “The non-hydrolyzable GTP analogue GTPγS is a more effective inhibitor than GTP”.
